Results taken from US20060069132A1, “Azolecarboxamide herbicides” (priority 2004, published 2006).

Assays:
barnyardgrass [1] = assay: Test B pre-/postemergence herbicide test; format: in vivo, Echinochloa crus-galli; conditions: for Barnyardgrass plant response rating: Postemergence, scale 0 (no effect) to 100 (complete control)
How it was run: (§1)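 Evaluation is visual, comparing treated with control plants on a scale where 0 means no effect and 100 means full control. Treatments were preemergence, or postemergence on seedlings 2–18 cm tall, and held 13–15 days in the greenhouse.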

Surinam grass = assay: Test B pre-/postemergence herbicide test; format: in vivo, Urochloa decumbens
How it was run: (§2)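 Response was scored visually 13 to 15 days after treatment against untreated greenhouse controls, 0 meaning no effect and 100 complete control. Formulations (solvent mixture plus surfactant) went onto soil after planting, onto foliage of 1- to 4-leaf plants, and onto 2-leaf plants in a flooded paddy set including rice and barnyardgrass.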

cocklebur = assay: Test B pre-/postemergence herbicide test; format: in vivo, Xanthium strumarium
How it was run: as §1

corn = assay: Test B pre-/postemergence herbicide test; format: in vivo, Zea mays
How it was run: as §2

large crabgrass = assay: Test B pre-/postemergence herbicide test; format: in vivo, Digitaria sanguinalis
How it was run: as §2

giant foxtail = assay: Test B pre-/postemergence herbicide test; format: in vivo, Setaria faberi
How it was run: as §2

lambsquarters = assay: Test B pre-/postemergence herbicide test; format: in vivo, Chenopodium album
How it was run: as §2

morningglory = assay: Test B pre-/postemergence herbicide test; format: in vivo, Ipomoea coccinea
How it was run: as §1

pigweed = assay: Test B pre-/postemergence herbicide test; format: in vivo, Amaranthus retroflexus
How it was run: as §2

velvetleaf = assay: Test B pre-/postemergence herbicide test; format: in vivo, Abutilon theophrasti
How it was run: as §2

blackgrass [2] = assay: Test B postemergence herbicide test; format: in vivo, Alopecurus myosuroides
How it was run: (§3)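 Each value is a visual 0–100 response rating taken against controls 13 to 15 days after treatment in the greenhouse. Plants received formulated chemical postemergence at the 1- to 4-leaf stage or, in flooded paddy, at the 2-leaf stage.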

wheat [3] = assay: Test B postemergence herbicide test; format: in vivo, Triticum aestivum; design: key to Wheat plant response rating: 0 = no effect, 100 = complete control
How it was run: (§4)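 Greenhouse test; postemergence application to plants at 1–4 leaves (2–18 cm); paddy species at 2 leaves; evaluated visually vs controls at 13–15 days; scale 0–100 (100 = complete control).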

wild oat [4] = assay: Test B postemergence herbicide test; format: in vivo, Avena fatua
How it was run: as §4

rice = assay: Test B flooded paddy test; format: in vivo, Oryza sativa; conditions: 1000 g ai/ha, scale 0 to 100 (0 no effect, 100 complete control)
How it was run: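 Postemergence plants were sprayed with formulated test chemicals at 2 to 18 cm height (1- to 4-leaf stage); paddy species were grown to the 2-leaf stage. After 13 to 15 days in a greenhouse, injury was rated visually against untreated controls on a 0–100 scale (0 = no effect, 100 = complete control).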

[5] = system: small flower umbrella sedge; assay: Test B flooded paddy test; format: in vivo, Cyperus difformis; conditions: 1000 g ai/ha, scale 0 to 100 (0 no effect, 100 complete control)
How it was run: as §3

ducksalad = assay: Test B flooded paddy test; format: in vivo, Heteranthera limosa; conditions: 1000 g ai/ha, scale 0 to 100 (0 no effect, 100 complete control)
How it was run: as §3

barnyardgrass [6] = assay: Test B flooded paddy test; format: in vivo, Echinochloa crus-galli; conditions: 1000 g ai/ha, scale 0 to 100 (0 no effect, 100 complete control)
How it was run: as §3

winter barley = assay: Test C postemergence herbicide test; format: in vivo, Hordeum vulgare
Protocol: (§5) At the same time, plants selected from these crop and weed species and also winter barley (Hordeum vulgare L.), blackgrass (Alopecurus myosuroides Huds.), canarygrass (Phalaris minor Retz.), chickweed (Stellaria media (L.) Vill.), downy bromegrass (Bromus tectorum L.), green foxtail (Setaria viridis (L.) Beauv.), Italian ryegrass (Lolium multiflorum Lam.), wheat (Triticum aestivum L.), wild oat (Avenafatua L.) and windgrass (Apera spica-venti (L.) Beauv.) were treated with postemergence applications of some of the test chemicals formulated in the same manner. Plants ranged in height from 2 to 18 cm (1- to 4-leaf stage) for postemergence treatments. Plant species in the flooded paddy test consisted of rice (Oryza sativa), smallflower umbrella sedge (Cyperus difformis L.), ducksalad (Heteranthera limosa (Sw.) Willd.) and barnyardgrass (Echinochloa crus-galli (L.) Beauv.) grown to the 2-leaf stage for testing. Treated plants and controls were maintained in a greenhouse for 12 to 14 days, after which time all species were compared to controls and visually evaluated. Plant response ratings, summarized in Table C, are based on a scale of 0 to 100 where 0 is no effect and 100 is complete control. A dash (-) response means no test result.

blackgrass [7] = assay: Test C postemergence herbicide test; format: in vivo, Alopecurus myosuroides
Protocol: as §5

canarygrass = assay: Test C postemergence herbicide test; format: in vivo, Phalaris minor
Protocol: as §5

downy bromegrass = assay: Test C postemergence herbicide test; format: in vivo, Bromus tectorum
Protocol: as §5

green foxtail = assay: Test C postemergence herbicide test; format: in vivo, Setaria viridis
Protocol: as §5

Italian ryegrass = assay: Test C postemergence herbicide test; format: in vivo, Lolium multiflorum; conditions: postemergence, scale 0 to 100
Protocol: as §5

wheat [8] = assay: Test C postemergence herbicide test; format: in vivo, Triticum aestivum; conditions: postemergence, scale 0 to 100
Protocol: as §5

wild oat [9] = assay: Test C postemergence herbicide test; format: in vivo, Avenafatua; conditions: postemergence, scale 0 to 100
Protocol: as §5

windgrass = assay: Test C postemergence herbicide test; format: in vivo, Apera spica-venti; conditions: postemergence, scale 0 to 100
Protocol: as §5

[10] = 125 g ai/ha, 0 is no effect, 100 is complete control, preemergence
[11] = Postemergence, 500 g ai/ha, scale 0 (no effect) to 100 (complete control)
[12] = postemergence, 125 g ai/ha, scale 0 to 100
[13] = Postemergence, 250 g ai/ha, scale 0 to 100, 0 no effect, 100 complete control
[14] = postemergence, 31 g ai/ha, scale 0 to 100
[15] = postemergence, 62 g ai/ha, scale 0 to 100

C=CCNC(=O)c1ccc(F)c(NC(=O)c2cc(C(C)(C)C)nn2CC)c1 [Compound 430]
Plant response rating (0 to 100 scale), Barnyardgrass (barnyardgrass [1]; [10]): 90 | Barnyardgrass plant response rating (barnyardgrass [1]; 125 g ai/ha): 30 | Barnyardgrass plant response rating (barnyardgrass [1]; 500 g ai/ha): 50 | Plant response rating (0 to 100 scale), Surinam Grass (Surinam grass; [10]): 80 | Surinam Grass plant response rating (Surinam grass; [11]): 40 | Surinam Grass plant response rating (Surinam grass; [12]): 30 | Plant response rating (0 to 100 scale), Cocklebur (cocklebur; [10]): 10 | Cocklebur plant response rating (cocklebur; [11]): 90 | Cocklebur plant response rating (cocklebur; [12]): 60 | Plant response rating (0 to 100 scale), Corn (corn; [10]): 50 | Corn plant response rating (corn; [11]): 40 | Corn plant response rating (corn; [12]): 20 | Plant response rating (0 to 100 scale), Crabgrass, Large (large crabgrass; [10]): 100 | Crabgrass, Large plant response rating (large crabgrass; [11]): 50 | Crabgrass, Large plant response rating (large crabgrass; [12]): 30 | Plant response rating (0 to 100 scale), Foxtail, Giant (giant foxtail; [10]): 90 | Foxtail, Giant plant response rating (giant foxtail; [11]): 40 | Foxtail, Giant plant response rating (giant foxtail; [12]): 30 | Plant response rating (0 to 100 scale), Lambsquarters (lambsquarters; [10]): 100 | Lambsquarters plant response rating (lambsquarters; [11]): 80 | Lambsquarters plant response rating (lambsquarters; [12]): 60 | Plant response rating (0 to 100 scale), Morningglory (morningglory; [10]): 20 | Morningglory plant response rating (morningglory; [11]): 70 | Morningglory plant response rating (morningglory; [12]): 60 | Plant response rating (0 to 100 scale), Pigweed (pigweed; [10]): 100 | Pigweed plant response rating (pigweed; [11]): 80 | Pigweed plant response rating (pigweed; [12]): 60 | Plant response rating (0 to 100 scale), Velvetleaf (velvetleaf; [10]): 40 | Velvetleaf plant response rating (velvetleaf; [11]): 80 | Velvetleaf plant response rating (velvetleaf; [12]): 60 | Blackgrass plant response rating (blackgrass [2]; [11]): 70 | Blackgrass plant response rating (blackgrass [2]; [12]): 40 | Wheat plant response rating (wheat [3]; 500 g ai/ha, scale 0 to 100, 0 no effect, 100 complete control, preemergence): 100 | Wheat plant response rating (wheat [3]; [11]): 40 | Wheat plant response rating (wheat [3]; [12]): 30 | Oat, Wild plant response rating (wild oat [4]; [11]): 50 | Oat, Wild plant response rating (wild oat [4]; [12]): 40 | Rice plant response rating (rice): 60 | Sedge, Umbrella plant response rating [5]: 80 | Ducksalad plant response rating (ducksalad): 80 | Barnyardgrass plant response rating (barnyardgrass [6]): 80 | Plant response rating, Barley, Winter (winter barley; Postemergence, 125 g ai/ha, scale 0 to 100, 0 no effect, 100 complete control): 35 | Plant response rating, Barley, Winter (winter barley; [13]): 45 | Plant response rating, Barley, Winter (winter barley; [14]): 25 | Plant response rating, Barley, Winter (winter barley; postemergence, 62 g ai/ha, scale 0 to 100 (0 no effect, 100 complete control)): 30 | Plant response rating, Blackgrass (blackgrass [7]; [13]): 65 | Plant response rating, Blackgrass (blackgrass [7]; [12]): 55 | Plant response rating, Blackgrass (blackgrass [7]; [14]): 45 | Plant response rating, Blackgrass (blackgrass [7]; [15]): 50 | Plant response rating, Canarygrass (canarygrass; [13]): 60 | Plant response rating, Canarygrass (canarygrass; [12]): 50 | Plant response rating, Canarygrass (canarygrass; [14]): 30 | Plant response rating, Canarygrass (canarygrass; [15]): 40 | Plant response rating, Bromegrass, Downy (downy bromegrass; [13]): 55 | Plant response rating, Bromegrass, Downy (downy bromegrass; [12]): 50 | Plant response rating, Bromegrass, Downy (downy bromegrass; [14]): 45 | Plant response rating, Bromegrass, Downy (downy bromegrass; [15]): 45 | Plant response rating, Foxtail, Green (green foxtail; [13]): 60 | Plant response rating, Foxtail, Green (green foxtail; [12]): 50 | Plant response rating, Foxtail, Green (green foxtail; [15]): 45 | Plant response rating, Ryegrass, Italian (Italian ryegrass; 125 g ai/ha): 60 | Plant response rating, Ryegrass, Italian (Italian ryegrass; 62 g ai/ha): 55 | Plant response rating, Wheat (wheat [8]; 125 g ai/ha): 50 | Plant response rating, Wheat (wheat [8]; 62 g ai/ha): 45 | Plant response rating, Oat, Wild (wild oat [9]; 125 g ai/ha): 60 | Plant response rating, Oat, Wild (wild oat [9]; 62 g ai/ha): 55 | Plant response rating, Windgrass (windgrass; 125 g ai/ha): 45 | Plant response rating, Windgrass (windgrass; 62 g ai/ha): 35
